From USRE38132E1, “Phenylpyrrolidines, phenylimidazolidines,3-phenyl-1,3-oxizolidines and 3-phenyl-1,3-thiazolidines and their use in the treatment of inflammatory disease” (Boehringer Ingelheim Pharmaceuticals, Inc., priority 1997, dated 2003)

molecular target: T1, interaction of ICAM-1 with the Leukointegrin CD18/CD11a (LFA-1) (Homo sapiens, UniProt P05107+P20701); experiment: Assay to determine inhibition of LFA-1 binding to ICAM-1 (immunopurified LFA-1 on plate-bound sICAM-1, ELISA readout); details: at 160 μg/mL; read-out: LFA-1/ICAM Binding Assay percent inhibition
T1 construct: endogenous in cells; sICAM-1: made in house, secreted from transfected CHO DUX cells
T1 sequence (P20701 26-1170): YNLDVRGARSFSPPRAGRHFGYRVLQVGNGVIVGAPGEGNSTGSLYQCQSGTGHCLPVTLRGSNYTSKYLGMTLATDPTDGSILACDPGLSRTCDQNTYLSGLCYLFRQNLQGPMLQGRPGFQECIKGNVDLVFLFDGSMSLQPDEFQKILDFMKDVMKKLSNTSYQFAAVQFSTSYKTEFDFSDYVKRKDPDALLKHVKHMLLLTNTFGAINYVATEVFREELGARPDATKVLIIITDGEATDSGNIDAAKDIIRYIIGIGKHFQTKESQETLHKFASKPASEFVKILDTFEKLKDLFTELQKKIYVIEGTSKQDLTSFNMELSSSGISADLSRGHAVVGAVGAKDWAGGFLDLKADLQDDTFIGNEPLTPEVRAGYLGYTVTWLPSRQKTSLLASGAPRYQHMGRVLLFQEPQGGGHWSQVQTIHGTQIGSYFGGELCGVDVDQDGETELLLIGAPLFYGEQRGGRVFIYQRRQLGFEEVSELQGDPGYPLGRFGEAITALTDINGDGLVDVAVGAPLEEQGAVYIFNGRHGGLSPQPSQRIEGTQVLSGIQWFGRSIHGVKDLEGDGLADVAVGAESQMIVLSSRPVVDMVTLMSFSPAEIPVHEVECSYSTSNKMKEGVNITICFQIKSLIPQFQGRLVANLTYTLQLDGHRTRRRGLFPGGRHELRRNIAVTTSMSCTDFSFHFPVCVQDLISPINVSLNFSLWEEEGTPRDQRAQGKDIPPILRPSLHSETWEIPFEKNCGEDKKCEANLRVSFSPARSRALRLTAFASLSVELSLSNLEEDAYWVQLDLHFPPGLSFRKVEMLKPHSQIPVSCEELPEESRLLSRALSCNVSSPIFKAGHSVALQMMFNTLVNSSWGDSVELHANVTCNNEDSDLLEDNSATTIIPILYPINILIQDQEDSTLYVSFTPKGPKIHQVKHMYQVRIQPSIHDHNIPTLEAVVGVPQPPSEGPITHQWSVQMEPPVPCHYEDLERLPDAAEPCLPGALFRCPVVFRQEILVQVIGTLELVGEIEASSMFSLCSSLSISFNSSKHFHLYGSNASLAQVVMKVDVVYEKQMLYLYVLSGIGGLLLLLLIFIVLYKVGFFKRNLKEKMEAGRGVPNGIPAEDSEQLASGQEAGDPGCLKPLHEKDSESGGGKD
T1 sequence (P05107 23-769): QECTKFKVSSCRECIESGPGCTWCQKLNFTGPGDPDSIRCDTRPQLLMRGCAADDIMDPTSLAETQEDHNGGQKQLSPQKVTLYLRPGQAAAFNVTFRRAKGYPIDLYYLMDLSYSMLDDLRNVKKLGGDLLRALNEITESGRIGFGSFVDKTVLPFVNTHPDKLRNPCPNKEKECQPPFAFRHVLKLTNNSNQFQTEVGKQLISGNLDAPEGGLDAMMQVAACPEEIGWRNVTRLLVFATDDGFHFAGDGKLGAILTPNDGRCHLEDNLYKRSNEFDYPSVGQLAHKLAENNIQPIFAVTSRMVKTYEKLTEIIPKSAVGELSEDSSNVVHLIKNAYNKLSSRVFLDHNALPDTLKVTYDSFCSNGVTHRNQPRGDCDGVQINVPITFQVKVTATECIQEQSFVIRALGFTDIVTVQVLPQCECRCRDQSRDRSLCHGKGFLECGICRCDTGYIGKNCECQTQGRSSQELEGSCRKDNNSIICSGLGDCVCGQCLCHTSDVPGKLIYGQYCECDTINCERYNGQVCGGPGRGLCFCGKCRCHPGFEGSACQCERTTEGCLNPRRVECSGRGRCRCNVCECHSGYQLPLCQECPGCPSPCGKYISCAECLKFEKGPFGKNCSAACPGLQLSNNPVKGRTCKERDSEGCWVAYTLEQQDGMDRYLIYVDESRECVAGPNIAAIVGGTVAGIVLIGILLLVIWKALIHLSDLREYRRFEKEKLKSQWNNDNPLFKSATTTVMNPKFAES

SMILES	inhibition at 160 µg/mL
O=C1NC(Cc2cccnc2)C(=O)N1c1cc(Cl)cc(Cl)c1 (stereo not drawn) [Example 181]	47%

same assay, conditions: values marked e approximated from incomplete dose-response curve

SMILES	Kd
O=C(c1ccccc1)c1ccc(CC2NC(=O)N(c3cc(Cl)cc(Cl)c3)C2=O)cc1 (stereo not drawn) [Example 1]	1640 nM
CC1(Cc2cccc(O)c2)NC(=O)N(c2cc(Cl)cc(Cl)c2)C1=O (stereo not drawn) [Example 11]	6300 nM
O=C1NC(C(c2ccccc2)c2ccccc2)C(=O)N1c1cc(Cl)cc(Cl)c1 (stereo not drawn) [Example 13]	1960 nM
O=C1NC(Cc2ccc(Br)cc2)C(=O)N1c1cc(Cl)cc(Cl)c1 (stereo not drawn) [Example 19]	760 nM
CC(N)(Cc1c[nH]c2ccccc12)C(=O)O (stereo not drawn) [Example 25]	3080 nM
O=C1NC(Cc2ccsc2)C(=O)N1c1cc(Cl)cc(Cl)c1 (stereo not drawn) [Example 26]	2750 nM
CC1(Cc2csc3ccccc23)NC(=O)N(c2cc(Cl)cc(Cl)c2)C1=O (stereo not drawn) [Example 27]	~52000 nM
CCC1(Cc2ccccc2)NC(=O)N(c2cc(Cl)cc(Cl)c2)C1=O (stereo not drawn) [Example 30]	1480 nM
CCCC1(Cc2ccccc2)NC(=O)N(c2cc(Cl)cc(Cl)c2)C1=O (stereo not drawn) [Example 31]	1360 nM
CC(C)C1(Cc2ccccc2)NC(=O)N(c2cc(Cl)cc(Cl)c2)C1=O (stereo not drawn) [Example 32]	12100 nM
CC1(Cc2ccccc2)C(=O)N(c2cc(Cl)cc(Cl)c2)C(=O)N1C1CCCCC1 (stereo not drawn) [Example 33]	940 nM
C[C@]1(Cc2ccc(Br)cc2)NC(=O)N(c2cccc(Cl)c2)C1=O [Example 36]	4050 nM
Cc1cccc(C)c1CC1(C)NC(=O)N(c2cc(Cl)cc(Cl)c2)C1=O (stereo not drawn) [Example 38]	1150 nM
C[C@]1(Cc2c[nH]c3ccccc23)NC(=O)N(c2cc(Cl)cc(Cl)c2)C1=O [Example 42]	600 nM
COC(=O)c1ccc(CC2(C)NC(=O)N(c3cc(Cl)cc(Cl)c3)C2=O)cc1 (stereo not drawn) [Example 46]	2260 nM
CC(C)(C)C(=O)c1ccc(CC2(C)NC(=O)N(c3cc(Cl)cc(Cl)c3)C2=O)cc1 (stereo not drawn) [Example 47]	4310 nM
CC1(Cc2ccccc2Br)NC(=O)N(c2cc(Cl)cc(Cl)c2)C1=O (stereo not drawn) [Example 48]	1750 nM
CC1(Cc2ccc(C(F)(F)F)cc2)NC(=O)N(c2cc(Cl)cc(Cl)c2)C1=O (stereo not drawn) [Example 51]	430 nM
CC1(Cc2ccc(C(C)(C)C)cc2)NC(=O)N(c2cc(Cl)cc(Cl)c2)C1=O (stereo not drawn) [Example 52]	1590 nM
CC1(Cc2cccc(C(F)(F)F)c2)NC(=O)N(c2cc(Cl)cc(Cl)c2)C1=O (stereo not drawn) [Example 53]	1470 nM
CC1(Cc2cccc(Oc3ccccc3)c2)NC(=O)N(c2cc(Cl)cc(Cl)c2)C1=O (stereo not drawn) [Example 56]	480 nM
CC1(Cc2ccc(OC(F)(F)F)cc2)NC(=O)N(c2cc(Cl)cc(Cl)c2)C1=O (stereo not drawn) [Example 57]	360 nM
CC1(Cc2cc(F)cc(F)c2)NC(=O)N(c2cc(Cl)cc(Cl)c2)C1=O (stereo not drawn) [Example 58]	2850 nM
CCCCOc1cc(CC2(C)NC(=O)N(c3cc(Cl)cc(Cl)c3)C2=O)nc(C(F)(F)F)c1 (stereo not drawn) [Example 63]	~3000 nM
CC1(Cc2cccc(OC(F)(F)F)c2)NC(=O)N(c2cc(Cl)cc(Cl)c2)C1=O (stereo not drawn) [Example 68]	2580 nM
O=C1NC(Cc2ccccc2)C(=O)N1c1cc(Cl)c(Cl)c(Cl)c1 (stereo not drawn) [Example 70]	1890 nM
O=C1NC(Cc2ccccc2)C(=O)N1c1cc(Cl)c(I)c(Cl)c1 (stereo not drawn) [Example 71]	4380 nM

SMILES	Kd
C[C@@H]1C(=O)N(c2cc(Cl)cc(Cl)c2)C(=O)[C@]1(C)Cc1ccc(Br)cc1 [Example 73]	340 nM
C[C@H]1C(=O)N(c2cc(Cl)cc(Cl)c2)C(=O)[C@]1(C)Cc1ccccc1 [Example 74]	670 nM
CC1(Cc2ccccc2)CC(=O)N(c2cc(Cl)cc(Cl)c2)C1=O (stereo not drawn) [Example 75]	290 nM
CC1(Cc2ccc(Br)cc2)NC(=S)N(c2cc(Cl)cc(Cl)c2)C1=S (stereo not drawn) [Example 78]	340 nM
CN1C(=S)N(c2cc(Cl)cc(Cl)c2)C(=S)C1(C)Cc1ccc(Br)cc1 (stereo not drawn) [Example 79]	430 nM
O=C1C(Cc2ccccc2)N(Cc2ccccc2)C(=O)N1c1cc(Cl)cc(Cl)c1 (stereo not drawn) [Example 84]	420 nM
CC(C)(C)OC(=O)CN1C(=O)N(c2cc(Cl)cc(Cl)c2)C(=O)C1(C)Cc1ccccc1 (stereo not drawn) [Example 91]	430 nM
CN1C(=O)N(c2cc(Cl)cc(Cl)c2)C(=O)C1Cc1ccc(C(=O)c2ccccc2)cc1 (stereo not drawn) [Example 95]	260 nM
CN(C)CCN1C(=O)N(c2cc(Cl)cc(Cl)c2)C(=O)C1(C)Cc1ccc(Br)cc1 (stereo not drawn) [Example 99]	520 nM
CN1C(=O)N(c2cccc(Cl)c2)C(=O)[C@@]1(C)Cc1ccc(Br)cc1 [Example 101]	680 nM
C[C@@]1(Cc2ccc(Br)cc2)C(=O)N(c2cc(Cl)cc(Cl)c2)C(=O)N1Cc1cccc(C#N)c1 [Example 104]	270 nM
CCN1C(=O)N(c2cc(Cl)cc(Cl)c2)C(=O)C1(C)Cc1ccc(Br)cc1 (stereo not drawn) [Example 105]	120 nM
CCCN1C(=O)N(c2cc(Cl)cc(Cl)c2)C(=O)C1(C)Cc1ccc(Br)cc1 (stereo not drawn) [Example 106]	140 nM
CN(C)C(=O)CN1C(=O)N(c2cc(Cl)cc(Cl)c2)C(=O)[C@@]1(C)Cc1ccc(Br)cc1 [Example 107]	490 nM
CN(C)CCN1C(=O)N(c2cc(Cl)cc(Cl)c2)C(=O)[C@@]1(C)Cc1ccc(Br)cc1 [Example 108]	410 nM
COc1cccc(CN2C(=O)N(c3cc(Cl)cc(Cl)c3)C(=O)[C@@]2(C)Cc2ccc(Br)cc2)n1 [Example 112]	390 nM
COc1ccc(CN2C(=O)N(c3cc(Cl)cc(Cl)c3)C(=O)[C@@]2(C)Cc2ccc(Br)cc2)cc1 [Example 113]	1910 nM
C[C@@]1(Cc2ccc(Br)cc2)C(=O)N(c2cc(Cl)cc(Cl)c2)C(=O)N1Cc1ccccc1C#N [Example 114]	260 nM
C[C@@]1(Cc2ccc(Br)cc2)C(=O)N(c2cc(Cl)cc(Cl)c2)C(=O)N1Cc1ccc(C#N)cc1 [Example 115]	240 nM
C[C@H](O)CN1C(=O)N(c2cc(Cl)cc(Cl)c2)C(=O)[C@@]1(C)Cc1ccc(Br)cc1 [Example 116]	190 nM
C[C@@]1(Cc2ccc(Br)cc2)C(=O)N(c2cc(Cl)cc(Cl)c2)C(=O)N1CCCCCCCl [Example 120]	480 nM
COc1ccccc1CN1C(=O)N(c2cc(Cl)cc(Cl)c2)C(=O)[C@@]1(C)Cc1ccc(Br)cc1 [Example 126]	810 nM
CC(C)N1C(=O)N(c2cc(Cl)cc(Cl)c2)C(=O)C1(C)Cc1ccc(Br)cc1 (stereo not drawn) [Example 139]	790 nM
Cc1ccccc1CC1(C)C(=O)N(c2cc(Cl)cc(Cl)c2)C(=O)N1C (stereo not drawn) [Example 142]	430 nM
Cc1cccc(CC2(C)C(=O)N(c3cc(Cl)cc(Cl)c3)C(=O)N2C)c1 (stereo not drawn) [Example 143]	1200 nM
Cc1ccc(CC2(C)C(=O)N(c3cc(Cl)cc(Cl)c3)C(=O)N2C)cc1 (stereo not drawn) [Example 144]	350 nM
CN1C(=O)N(c2cc(Cl)cc(Cl)c2)C(=O)C1(C)Cc1ccccc1Br (stereo not drawn) [Example 145]	1050 nM

SMILES	Kd
CN1C(=O)N(c2cc(Cl)cc(Cl)c2)C(=O)C1(C)Cc1cccc(F)c1 (stereo not drawn) [Example 147]	340 nM
Cc1ccccc1CC1(C)C(=O)N(c2cc(Cl)cc(Cl)c2)C(=O)N1C (stereo not drawn) [Example 148]	500 nM
CC1(Cc2ccccc2)C(=O)N(c2cc(Cl)cc(Cl)c2)C(=O)N1C1CC1 (stereo not drawn) [Example 150]	510 nM
CN1C(=O)N(c2cc(Cl)cc(Cl)c2)C(=O)C1(C)Cc1ccccc1C#N (stereo not drawn) [Example 152]	2660 nM
CN1C(=O)N(c2cc(Cl)cc(Cl)c2)C(=O)C1(C)Cc1cccc(C#N)c1 (stereo not drawn) [Example 153]	2190 nM
CN1C(=O)N(c2cc(Cl)cc(Cl)c2)C(=O)C1(C)Cc1cccc(Cl)c1 (stereo not drawn) [Example 155]	510 nM
CN1C(=O)N(c2cc(Cl)cc(Cl)c2)C(=O)C1(C)Cc1ccccc1Cl (stereo not drawn) [Example 156]	690 nM
CN1C(=O)N(c2cc(Cl)cc(Cl)c2)C(=O)C1(C)Cc1ccccc1 (stereo not drawn) [Example 158]	690 nM
CN1C(=O)N(c2cc(Cl)cc(Cl)c2)C(=O)C1(C)Cc1ccc2c(c1)OCO2 (stereo not drawn) [Example 160]	640 nM
CN1C(=O)N(c2cc(Cl)cc(Cl)c2)C(=O)C1(C)Cc1ccc2ccccc2n1 (stereo not drawn) [Example 161]	4560 nM
Cc1cc(C)cc(CC2(C)C(=O)N(c3cc(Cl)cc(Cl)c3)C(=O)N2C)c1 (stereo not drawn) [Example 162]	1050 nM
COc1cccc(CC2(C)C(=O)N(c3cc(Cl)cc(Cl)c3)C(=O)N2C)c1 (stereo not drawn) [Example 165]	1070 nM
COc1ccc(CC2(C)C(=O)N(c3cc(Cl)cc(Cl)c3)C(=O)N2C)cc1 (stereo not drawn) [Example 166]	280 nM
CN1C(=O)N(c2cc(Cl)cc(Cl)c2)C(=O)C1(C)Cc1c(F)c(F)c(F)c(F)c1F (stereo not drawn) [Example 167]	600 nM
CN1C(=O)N(c2cc(Cl)cc(Cl)c2)C(=O)C1(C)Cc1ccc(C(=O)c2ccccc2)cc1 (stereo not drawn) [Example 168]	410 nM
Cc1ccc(CC2(C)C(=O)N(c3cc(Cl)cc(Cl)c3)C(=O)N2C)cc1 (stereo not drawn) [Example 170]	20 nM
COC(=O)c1ccc(CC2(C)C(=O)N(c3cc(Cl)cc(Cl)c3)C(=O)N2C)cc1 (stereo not drawn) [Example 174]	710 nM
COCC1(Cc2ccc(Br)cc2)C(=O)N(c2cc(Cl)cc(Cl)c2)C(=O)N1C (stereo not drawn) [Example 175]	230 nM
CN1C(=O)N(c2cc(Cl)cc(Cl)c2)C(=O)C1(C)Cc1ccc(S(C)(=O)=O)cc1 (stereo not drawn) [Example 176]	3960 nM
CN1C(=O)N(c2cc(Cl)cc(Cl)c2)C(=O)C1C(O)c1ccccc1 (stereo not drawn) [Example 178]	1170 nM
O=C1NC(C(O)c2ccccc2)C(=O)N1c1cc(Cl)cc(Cl)c1 (stereo not drawn) [Example 179]	3840 nM
C[C@]1(Cc2ccc(-c3ccc(C(=O)O)cc3)cc2)NC(=O)N(c2cc(Cl)cc(Cl)c2)C1=O [Example 183]	940 nM
C[C@]1(Cc2cccc(-c3ccccc3)c2)NC(=O)N(c2cc(Cl)cc(Cl)c2)C1=O [Example 185]	250 nM
CN1C(=O)N(c2cc(Cl)cc(Cl)c2)C(=O)[C@@]1(C)Cc1ccc(-c2ccc(C(=O)O)cc2)cc1 [Example 186]	1110 nM
CC1(Cc2ccc(-c3ccccc3Cl)cc2)NC(=O)N(c2cc(Cl)cc(Cl)c2)C1=O (stereo not drawn) [Example 191]	140 nM
Cc1ccc(-c2ccc(CC3(C)NC(=O)N(c4cc(Cl)cc(Cl)c4)C3=O)cc2)cc1[N+](=O)[O-] (stereo not drawn) [Example 192]	~1000 nM
